According to ChEMBL document CHEMBL1201862, “PubChem BioAssay data set” (2004):
Where “and” joins values, the source holds several entries; their conditions need not be identical. Equal entries are not always repeated.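 Grown in 96-well plates, cells were treated for 48 hours with each compound at five concentrations. Insufficient inhibition: endpoint recorded as highest concentration tested. GI50 marks 50% less growth.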 Calls of active or inactive are those of the source. Cut-off read from the data, not from the text of the source: active = GI50 up to about 1.1 µM and inactive = higher.

Key:
Experiment in all cases: DTP human tumour cell line panel, 48 h
MDA-MB-231 = tested on: MDA-MB-231
UACC-62 = tested on: UACC-62
M14 = tested on: M14
SK-OV-3 = tested on: SK-OV-3
Malme-3M = tested on: Malme-3M
SNB-19 = tested on: SNB-19
MDA-MB-435 = tested on: MDA-MB-435
HOP-62 = tested on: HOP-62
A549 = tested on: A549
DU-145 = tested on: DU-145
NCI-H522 = tested on: NCI-H522
SW-620 = tested on: SW-620
U-251 = tested on: U-251
OVCAR-8 = tested on: OVCAR-8
HCC 2998 = tested on: HCC 2998
NCI-H226 = tested on: NCI-H226
IGROV-1 = tested on: IGROV-1
UACC-257 = tested on: UACC-257
LOX IMVI = tested on: LOX IMVI

Measured: GI50

N#CC1=C(Nc2ccccc2)SC=C(c2ccccc2)N=C1NCc1ccccc1
inactive: MDA-MB-231 > 100 µM | UACC-62 > 100 µM | M14 > 100 µM | SK-OV-3 > 100 µM | Malme-3M > 100 µM | SNB-19 > 100 µM | MDA-MB-435 > 100 µM | HOP-62 > 100 µM | A549 > 100 µM | DU-145 > 100 µM | NCI-H522 53.8 µM | SW-620 > 100 µM | U-251 > 100 µM | OVCAR-8 > 100 µM

COc1ccc(C2C(Cl)C(=O)N2NC(=O)Cc2ccccc2)cc1 (centres undefined)
inactive: UACC-62 > 100 µM | HCC 2998 > 100 µM | NCI-H226 > 100 µM | IGROV-1 > 100 µM | UACC-257 > 100 µM | M14 > 100 µM | SK-OV-3 > 100 µM | Malme-3M > 100 µM | SNB-19 > 100 µM | HOP-62 > 100 µM | A549 > 100 µM | LOX IMVI > 100 µM | NCI-H522 > 100 µM | SW-620 > 100 µM | U-251 > 100 µM | OVCAR-8 > 100 µM

O=C1C=CC(=O)N1Nc1ccc([N+](=O)[O-])cc1[N+](=O)[O-]
inactive: UACC-62 > 100 µM | HCC 2998 > 100 µM | NCI-H226 97.1 µM | IGROV-1 > 100 µM | UACC-257 > 56.2 µM | M14 19.9 µM | SK-OV-3 > 100 µM | Malme-3M 16.8 µM | SNB-19 > 100 µM | HOP-62 > 100 µM | A549 > 100 µM | LOX IMVI > 100 µM | NCI-H522 > 42.7 µM | SW-620 > 67.3 µM | U-251 > 100 µM | OVCAR-8 > 100 µM

N#C[BH2-][n+]1cn(C2CC(O)C(COP(=O)(O)OC3CC(n4ccc(N)nc4=O)OC3CO)O2)c2nc(N)[nH]c(=O)c21 (centres undefined)
inactive: MDA-MB-231 > 100 µM | UACC-62 > 100 µM | HCC 2998 > 100 µM | NCI-H226 > 100 µM | IGROV-1 > 100 µM | UACC-257 > 100 µM | M14 > 100 µM | Malme-3M > 100 µM | SNB-19 > 100 µM | HOP-62 > 100 µM | A549 > 100 µM | DU-145 > 100 µM | NCI-H522 > 100 µM | U-251 > 100 µM | OVCAR-8 > 100 µM

COc1ccc(CCCN2c3ccccc3Sc3ccccc32)cc1
inactive: UACC-62 > 100 µM | HCC 2998 > 100 µM | NCI-H226 > 100 µM | IGROV-1 > 100 µM | UACC-257 > 100 µM | M14 > 100 µM | SK-OV-3 > 100 µM | Malme-3M > 100 µM | SNB-19 > 100 µM | HOP-62 > 100 µM | A549 > 100 µM | LOX IMVI 52.8 µM | NCI-H522 33.1 µM | SW-620 22.8 µM | U-251 > 100 µM | OVCAR-8 > 100 µM

C1CCN(c2nsc(N3CCCCC3)n2)CC1
inactive: UACC-62 > 100 µM | HCC 2998 > 100 µM | NCI-H226 > 100 µM | IGROV-1 > 100 µM | UACC-257 > 100 µM | M14 > 100 µM | SK-OV-3 > 100 µM | Malme-3M > 100 µM | SNB-19 > 100 µM | HOP-62 > 100 µM | A549 > 100 µM | LOX IMVI > 100 µM | NCI-H522 > 100 µM | SW-620 > 100 µM | U-251 > 100 µM | OVCAR-8 > 100 µM

CCOc1ccc(/N=N/c2c(-c3ccccc3)nn(C(=O)CC(=O)Nc3cccc(C)c3)c2-c2ccccc2)cc1
inactive: UACC-62 > 100 µM | HCC 2998 26.6 µM | NCI-H226 96.4 µM | IGROV-1 > 100 µM | UACC-257 > 100 µM | M14 > 100 µM | SK-OV-3 > 100 µM | Malme-3M > 100 µM | SNB-19 > 100 µM | HOP-62 > 100 µM | A549 > 100 µM | LOX IMVI > 100 µM | NCI-H522 > 100 µM | SW-620 > 100 µM | U-251 56.2 µM | OVCAR-8 > 100 µM

Clc1ccc(OCc2nn3c(CCc4nnc5sc(COc6ccc(Cl)cc6)nn45)nnc3s2)cc1
inactive: MDA-MB-231 19.8 µM | NCI-H226 30.3 µM | IGROV-1 16.8 µM | UACC-257 22.9 µM | M14 33.7 µM | SK-OV-3 28.8 µM | MDA-MB-435 24.9 µM | HOP-62 23.7 µM | DU-145 19.1 µM | LOX IMVI 37.2 µM | NCI-H522 5.62 µM | SW-620 25.2 µM | U-251 20.7 µM | OVCAR-8 14.5 µM

[N-]=[N+]=CC(=O)OCC1NC(=O)C(COC(=O)C=[N+]=[N-])NC1=O (centres undefined)
inactive: MDA-MB-231 > 100 µM | UACC-62 > 100 µM | HCC 2998 > 100 µM | NCI-H226 > 100 µM | IGROV-1 > 100 µM | UACC-257 > 100 µM | M14 > 100 µM | SK-OV-3 > 100 µM | Malme-3M > 100 µM | SNB-19 > 100 µM and 72.1 µM | MDA-MB-435 > 100 µM | HOP-62 > 100 µM | A549 > 100 µM | DU-145 > 100 µM | LOX IMVI > 100 µM | SW-620 > 100 µM | U-251 > 100 µM | OVCAR-8 > 100 µM

N#Cc1ccc(C2OCC3CC=CCC3CO2)cc1 (centres undefined)
inactive: UACC-62 80.7 µM | HCC 2998 59.4 µM | NCI-H226 > 100 µM | IGROV-1 > 100 µM | UACC-257 42.7 µM | M14 52.2 µM | SK-OV-3 > 100 µM | Malme-3M > 100 µM | SNB-19 > 100 µM | HOP-62 > 100 µM | A549 70 µM | LOX IMVI 94.6 µM | NCI-H522 18.9 µM | SW-620 > 100 µM | U-251 76.7 µM | OVCAR-8 83.4 µM

O=C(COc1ccc(Cl)cc1)N1N=C(c2ccc(Cl)cc2)CC1(O)c1ccccc1 (centres undefined)
inactive: UACC-62 15.9 µM | HCC 2998 > 37.2 µM | NCI-H226 22.3 µM | IGROV-1 18.5 µM | UACC-257 15.8 µM | M14 18.1 µM | SK-OV-3 19.5 µM | Malme-3M 20.2 µM | SNB-19 20.3 µM | HOP-62 23.4 µM | A549 14.3 µM | LOX IMVI 12.6 µM | NCI-H522 14.3 µM | SW-620 21.2 µM | U-251 16.7 µM | OVCAR-8 15.2 µM

O=C(/C=C/c1cccc([N+](=O)[O-])c1)c1ccc([N+](=O)[O-])cc1
inactive: UACC-62 > 100 µM | HCC 2998 > 100 µM | NCI-H226 > 100 µM | IGROV-1 > 100 µM | UACC-257 > 100 µM | M14 > 100 µM | SK-OV-3 > 100 µM | Malme-3M > 100 µM | SNB-19 > 100 µM | HOP-62 > 100 µM | A549 > 100 µM | LOX IMVI > 100 µM | NCI-H522 > 100 µM | SW-620 > 100 µM | U-251 > 100 µM | OVCAR-8 > 100 µM
